Results: BigSolDB 2.1

CC1(C)CCC2=C(O1)c1ccccc1C(=O)C2=O
solubility (mole fraction)
Details	298.15 K	303.15 K	308.15 K	313.15 K	318.15 K
in acetone	0.0205	0.0216	0.0245	0.0296	0.0342
in acetonitrile	0.018	0.0209	0.0227	0.0269	0.0325
in ethanol	0.00499	0.00595	0.00664	0.00909	0.0134
in ethyl acetate	0.00853	0.00936	0.0104	0.0121	0.0165
in isopropanol	0.00376	0.00432	0.00528	0.00754	0.0111
in methanol	0.0054	0.00654	0.0076	0.0101	0.0153
in n-butanol	0.00743	0.00895	0.0108	0.0142	0.0203
in n-propanol	0.00669	0.00793	0.00969	0.0146	0.0203
in propylene glycol	0.00306	0.00308	0.0037	0.00531	0.00724
in sec-butanol	0.00565	0.00671	0.0079	0.0104	0.0162
in water	2.85e-06	3.72e-06	4.46e-06	5.26e-06	6.12e-06
